Results reported in the NIST ThermoML archive (doi:10.1016/j.jct.2005.12.012).
Several values for one entry are separate records, joined by “and”; a condition that tells them apart may be missing. Identical values can stand only once. Numbers after ± are expanded uncertainties.

Details: Crystal

[Cl][Fe]([Cl])[Cl] [ferric chloride]
Details	vapor or sublimation pressure
383.9 K	2.16e-05 ± 4.4e-06 kPa
386.3 K	1.586e-05 ± 3.3e-06 kPa and 2.159e-05 ± 4.4e-06 kPa
389.3 K	4.466e-05 ± 1e-05 kPa
389.6 K	3.81e-05 ± 7.8e-06 kPa
389.7 K	3.88e-05 ± 8e-06 kPa
390.4 K	3.533e-05 ± 7.1e-06 kPa
392 K	3.693e-05 ± 7.7e-06 kPa
392.7 K	6.293e-05 ± 1.4e-05 kPa
393.8 K	8.506e-05 ± 1.7e-05 kPa
394.2 K	6.506e-05 ± 1.3e-05 kPa
394.8 K	9.106e-05 ± 1.8e-05 kPa
394.9 K	4.68e-05 ± 9.4e-06 kPa and 7.493e-05 ± 1.5e-05 kPa
395.1 K	5.706e-05 ± 1.3e-05 kPa
395.4 K	7.039e-05 ± 1.7e-05 kPa
396.6 K	7.053e-05 ± 1.4e-05 kPa
398 K	6.426e-05 ± 1.3e-05 kPa
398.6 K	0.0001123 ± 2.8e-05 kPa
398.9 K	0.0001423 ± 3.5e-05 kPa
399 K	0.0001348 ± 2.9e-05 kPa and 0.0001191 ± 2.4e-05 kPa
401.2 K	0.0001035 ± 2.1e-05 kPa
403 K	0.0001712 ± 3.5e-05 kPa and 0.0001621 ± 3.5e-05 kPa and 0.0001703 ± 3.5e-05 kPa
403.2 K	0.0002573 ± 5.2e-05 kPa
403.3 K	0.0001812 ± 3.8e-05 kPa
404.5 K	0.0002585 ± 5.2e-05 kPa
404.6 K	0.000249 ± 5e-05 kPa
407.7 K	0.0003298 ± 7e-05 kPa
408.6 K	0.000386 ± 7.7e-05 kPa and 0.0003425 ± 6.8e-05 kPa
409.1 K	0.000328 ± 6.9e-05 kPa
409.3 K	0.0003058 ± 6.3e-05 kPa
409.8 K	0.0004945 ± 0.00012 kPa
409.9 K	0.0003822 ± 8.1e-05 kPa
412.7 K	0.0003274 ± 6.6e-05 kPa
413.5 K	0.0004797 ± 0.00011 kPa
413.9 K	0.0005921 ± 0.00013 kPa and 0.0007087 ± 0.00015 kPa
414.1 K	0.0005326 ± 0.00011 kPa
414.6 K	0.0007097 ± 0.00014 kPa
416.4 K	0.0004961 ± 0.0001 kPa and 0.0004838 ± 9.9e-05 kPa
418.4 K	0.001063 ± 0.00043 kPa
419.3 K	0.0007021 ± 0.00015 kPa and 0.001331 ± 0.00057 kPa
419.4 K	0.0008229 ± 0.00017 kPa
419.8 K	0.0006339 ± 0.00016 kPa
419.9 K	0.0009366 ± 0.00019 kPa
421.9 K	0.0009899 ± 0.0002 kPa
422.2 K	0.001008 ± 0.0004 kPa
423.6 K	0.001647 ± 0.00073 kPa
424 K	0.00111 ± 0.00045 kPa
424.2 K	0.001053 ± 0.00043 kPa
424.8 K	0.001549 ± 0.00068 kPa
424.9 K	0.001033 ± 0.00042 kPa
425.6 K	0.001455 ± 0.00063 kPa
426.4 K	0.001488 ± 0.00065 kPa
426.8 K	0.001202 ± 0.00052 kPa
428.8 K	0.001767 ± 0.00091 kPa and 0.001985 ± 0.00097 kPa
429.2 K	0.002648 ± 0.0014 kPa
430.9 K	0.002751 ± 0.0013 kPa
431.6 K	0.001895 ± 0.00087 kPa
434 K	0.003812 ± 0.002 kPa
434.4 K	0.003132 ± 0.0016 kPa
434.5 K	0.004177 ± 0.0022 kPa
439.7 K	0.006419 ± 0.0036 kPa
445.2 K	0.008538 ± 0.005 kPa
